From patent US5776970A, “Tryptophan derivatives as protein tyrosine kinase blockers and their use in the treatment of neoplastic diseases” (Yeda Research and Development Co. Ltd., priority 1994, dated 1998) come the findings set out here.

The subject of series [1] is vanadate-stimulated lipogenesis in rat adipocytes. As to the kind of experiment: vanadate-stimulated lipogenesis in rat adipocytes. It counts as cell-based. Conditions: Adipocyte, intact rat adipocytes, read-out: IC50, insulin-like effects of vanadate ions (lipogenesis).
Series [2] has as its target insulin receptor tyrosine kinase (InsRTK) (Rattus norvegicus, UniProt P15127). The series can be described thus: PolyGlu4 Tyr phosphorylation by partially purified (wheat-germ-agglutinin purified) rat liver insulin receptor, cell-free. Type of series: biochemical. More on the design: wheat-germ-agglutinin purified rat liver insulin receptor; from tissue; host or cells: rat liver (wheat-germ-agglutinin purified). The method, then:
An assay of PolyGlu4 Tyr phosphorylation by partially purified insulin receptor was run for 30 min at 22° C. in 60 μl of 50 mM Hepes (pH 7.4)-0.1% Triton X-100 containing wheat-germ-agglutinin purified rat liver insulin receptor (1 μg protein), MgCl2 25 mM; MnCl2, 1 mM, ATP 17 μM, insulin 0.1 μM, PolyGlu4 Tyr, 0.17 mg/ml and the indicated concentrations in FIG. 1 of CBZ-DNPS-TRP-TAU. Phosphotyrosine content in PolyGlu4 Tyr was determined by a radioimmunoassay procedure (Shisheva et al., 1991). […] The inhibitory potency of other derivatives of formula I on InsRTK-catalyzed PolyGlu4 Tyr phosphorylation in cell-free experiments was determined. […] For comparison, the IC50 values for AC-TRP-TAU and L-tryptophan are 5 mM and >30 mM, respectively.
(§1) Various derivatives according to the invention in which R^1 is benzyloxycarbonyl (CBZ) or t-butoxycarbonyl (t-Boc), R^2 is --SO3 H or --PO3 H, n is 1,2 or 3, and R^3 is H, 2-nitrophenylthio (NPS) or 2,4-dinitrophenylthio (DNPS) were prepared and examined in cell-free and intact cell systems. The cell-free assay is PolyGlu4 Tyr phosphorylation by partially purified insulin receptor as described in Example 3. The assay in intact cells (namely, lipogenesis) was carried out as described in Example 4.

In series [3] the test system is murine T-cell lymphoma (LB3). As to the kind of experiment: insulin-dependent proliferation of murine T-cell lymphoma (LB3), thymidine incorporation. Type of series: cell-based. The protocol:
(§2) LB cells were removed from the peritoneal cavity of BALB/c mice, washed and resuspended in RPMI-1640. Then a continuous line designated LB3 was established in "LB medium" (50% RPMI-1640 plus 50% DCCM-1 in 10% fetal calf serum (FCS)). The LB3 cells were incubated (37° C., 5% CO2) in microplate wells (Nunc, Roskilde, Denmark) with 0.2 ml RPMI-1640 alone and in the same medium containing insulin, fetal calf serum (FCS) or both, and different concentrations of the compound CBZ-DNPS-TRP-TAU as indicated in FIG. 3. Proliferation capacity was determined by thymidine incorporation (^3 H-TdR, 1 μCi/well, specific activity 5 Ci/mM), added to the cells 24 hours later. In a typical experiment, cpm of ^3 H-thymidine incorporated into 30,000 cells was 12-14 fold higher in the presence of insulin or other mitogens than in their absence.

Series [4] concerns insulin-stimulated lipogenesis in rat adipocytes. The series can be described thus: insulin-stimulated lipogenesis in rat adipocytes ([U-14C]glucose incorporation). Particulars: Adipocyte; intact rat adipocytes; insulin 100 ng/ml; 20 min pre-incubation, 60 min at 37° C.; read-out: IC50, insulin-dependent lipogenesis. It counts as cell-based. The protocol:
The fat pads of three rats were cut into small pieces with scissors and digested in 3 ml of Krebs-Ringer-Bicarbonate (KRB)-buffer containing 0.7% bovine serum albumin (BSA) (pH 7.4) with collagenase (1 mg/ml). […] Five ml of buffer was then added, and the cells were squeezed through a mesh screen. The cells were then allowed to stand for several minutes (in a 15 ml plastic test tube at room temperature, floating) and the buffer underneath was removed. This procedure (suspension, floating and removal of buffer underneath) was repeated three times. […] Fat cell suspensions were pre-incubated for 20 min at 37° C. with increasing concentrations of the inhibitors. Results are expressed in FIG. 2 as the percent of maximal stimulation at the indicated concentrations of inhibitors.

Series [5] deals with LB3 cells. The series can be described thus: LB3 cell proliferation in response to various mitogens (IL-2, growth hormone, PMA). It counts as cell-based, murine. The protocol: as §2
Experimental conditions were as described in Example 6 except that lower concentrations of mitogens were applied here (those triggering 50% of maximal proliferation): insulin, interleukin-2 (IL-2), growth hormone and PMA. PMA is an activator of protein kinase C. Protein kinase C in this cell type triggers proliferation by a pathway which is only partially dependent on endogenous tyrosine phosphorylation.

The subject of series [6] is isoproterenol-mediated lipolysis. The series can be described thus: isoproterenol-mediated lipolysis in rat adipocytes (glycerol release). It counts as cell-based. The method, then:
In general there are two classes of protein kinases (PKs) in mammalian tissues: (a) PKs which phosphorylate tyrosine moieties in proteins (to phosphotyrosine), and (b) PKs which phosphorylate serine and threonine moieties (to phosphoserine and phosphotreonine). […] An example for such a metabolic effect is lipolysis which depends on protein kinase A. Rat adipocytes (prepared by the method of Rodbell, 1964) were incubated with isoproterenol alone (1 μM) or isoproterenol with CBZ-DNPS-TRP-TAU (200 μM) for one hour at 37° C. The amount of glycerol released from the cells was then determined by spectroscopic procedure (Shechter, 1982).

Series [7] can be described thus: solubility.
Series [8] deals with rat adipocytes. The series can be described thus: permeability into cell interiors (intact cell system, lipogenesis). Type of series: cell-based. Conditions: graded in words. The protocol:
Rat adipocytes were prepared essentially by the method of Rodbell, 1964. The fat pads of three rats were cut into small pieces with scissors and digested in 3 ml of Krebs-Ringer-Bicarbonate (KRB)-buffer containing 0.7% bovine serum albumin (BSA) (pH 7.4) with collagenase (1 mg/ml). The digestion was performed in a 25 ml flexible plastic bottle under an atmosphere of carbogen (95% O2, 5% CO2) for 40 min at 37° C. with vigorous shaking. Five ml of buffer was then added, and the cells were squeezed through a mesh screen. The cells were then allowed to stand for several minutes (in a 15 ml plastic test tube at room temperature, floating) and the buffer underneath was removed. This procedure (suspension, floating and removal of buffer underneath) was repeated three times. For [^14 C-U]glucose incorporation (lipogenesis), the fat cell suspensions (3×10^5 cells/ml) were divided into plastic vials (0.5 ml per vial) and incubated for 60 min at 37° C. under an atmosphere of 95% O2, 5% CO2, with 0.2 mM [U-^14 C]glucose, in either the presence or absence of insulin (100 ng/ml) and the indicated concentrations in FIG. 2 of CBZ-DNPS-TRP-TAU. The reaction was terminated by adding toluene-based scintillation fluid (1.0 ml per vial) and the extracted lipids were counted (Shechter and Karlish, 1980). Fat cell suspensions were pre-incubated for 20 min at 37° C. with increasing concentrations of the inhibitors. Results are expressed in FIG. 2 as the percent of maximal stimulation at the indicated concentrations of inhibitors. In all experiments insulin-stimulated lipogenesis was 4- to 5-fold higher than basal; basal ~2000 cpm per 3×10^5 cells/h; Vinsulin 8000-10,000 cpm per 3×10^5 cells/h.
as §1

Values after ≈ are worked out from the molar mass of the structure shown.

Sequence of insulin receptor tyrosine kinase (InsRTK) (P15127 764-1383 limits assumed): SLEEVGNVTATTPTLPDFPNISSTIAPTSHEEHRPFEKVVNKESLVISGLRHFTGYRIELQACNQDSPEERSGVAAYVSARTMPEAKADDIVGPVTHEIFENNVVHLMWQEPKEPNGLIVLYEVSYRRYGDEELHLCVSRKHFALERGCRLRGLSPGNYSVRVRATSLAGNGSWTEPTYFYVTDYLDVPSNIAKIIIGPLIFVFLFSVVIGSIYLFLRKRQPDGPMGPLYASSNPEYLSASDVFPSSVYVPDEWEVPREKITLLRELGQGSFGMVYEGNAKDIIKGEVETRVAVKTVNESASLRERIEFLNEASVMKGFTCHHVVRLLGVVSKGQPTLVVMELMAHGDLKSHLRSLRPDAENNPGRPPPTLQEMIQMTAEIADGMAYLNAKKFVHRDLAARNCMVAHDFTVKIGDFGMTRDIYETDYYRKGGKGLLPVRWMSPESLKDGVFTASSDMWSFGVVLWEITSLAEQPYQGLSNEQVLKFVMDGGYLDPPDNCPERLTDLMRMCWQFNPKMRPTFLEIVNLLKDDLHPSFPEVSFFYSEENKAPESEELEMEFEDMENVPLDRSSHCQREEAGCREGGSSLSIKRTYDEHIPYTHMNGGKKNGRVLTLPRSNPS
Sequence of insulin receptor tyrosine kinase (InsRTK) (P15127 27-759 partner limits assumed): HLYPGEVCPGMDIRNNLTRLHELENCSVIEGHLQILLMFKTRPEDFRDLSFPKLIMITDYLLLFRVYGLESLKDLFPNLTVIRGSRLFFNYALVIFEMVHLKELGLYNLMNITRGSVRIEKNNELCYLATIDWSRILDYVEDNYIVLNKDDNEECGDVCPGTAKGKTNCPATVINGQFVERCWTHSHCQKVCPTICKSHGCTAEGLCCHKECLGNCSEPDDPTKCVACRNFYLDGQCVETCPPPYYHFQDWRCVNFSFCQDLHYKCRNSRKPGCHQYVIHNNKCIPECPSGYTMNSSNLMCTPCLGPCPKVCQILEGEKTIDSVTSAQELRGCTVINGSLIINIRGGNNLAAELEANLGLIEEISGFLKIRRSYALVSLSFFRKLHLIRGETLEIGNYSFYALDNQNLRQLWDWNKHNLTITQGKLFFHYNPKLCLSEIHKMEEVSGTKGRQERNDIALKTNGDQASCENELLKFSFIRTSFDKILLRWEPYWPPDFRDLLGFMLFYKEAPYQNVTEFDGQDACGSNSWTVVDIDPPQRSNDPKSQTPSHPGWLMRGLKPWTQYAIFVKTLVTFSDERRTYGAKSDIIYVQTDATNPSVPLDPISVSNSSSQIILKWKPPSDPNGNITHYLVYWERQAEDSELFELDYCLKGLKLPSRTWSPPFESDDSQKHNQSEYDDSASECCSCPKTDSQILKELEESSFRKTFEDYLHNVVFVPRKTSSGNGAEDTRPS

What is called IC50 is the concentration needed to halve the response being measured. The term solubility denotes the concentration that dissolves in the medium under given conditions. For the compound `O=C(N[C@@H](Cc1c(Sc2ccc([N+](=O)[O-])cc2[N+](=O)[O-])[nH]c2ccccc12)C(=O)NCCS(=O)(=O)O)OCc1ccccc1` [CBZ-DNPS-TRP-TAU], the IC50 was 45 µM in series [1]; 130 µM in series [2]; 0.95 µM in series [3] (Mus musculus, T-cell, LB3, insulin-dependent, thymidine added 24 hours later); 170 µM in series [4]. Also, the “concentration range lower than that required to inhibit normal metabolic biological effects of insulin” value in series [3] (LB3 proliferation vs lipogenesis in rat adipocytes (FIG. 2)) is given as roughly 200 times. In addition, the “inhibition of IL-2-dependent proliferation of the T-cell lymphoma” value in series [5] (IL-2 at 50% of maximal proliferation) is on record as “blocks”. Also, the “inhibition of protein kinase C-dependent proliferation” value in series [5] (PMA at 50% of maximal proliferation) is listed as “at significantly higher concentrations”. Also, the “inhibition of growth hormone-dependent proliferation of the T-cell lymphoma” value in series [5] (growth hormone at 50% of maximal proliferation) is recorded as “blocks”. Moreover, the “effect in inhibiting isoproterenol-mediated lipolysis” value in series [6] (200 μM, isoproterenol 1 μM, one hour at 37° C.) is “negligible effect”. Also, the “Amount of glycerol released” value in series [6] (CBZ-DNPS-TRP-TAU 200 μM plus isoproterenol 1 μM) turned out to be 154 nmol/3 × 10^5 cells/3 h. Moreover, the activity at 200 µM in series [6] (Rattus norvegicus, Adipocyte, CBZ-DNPS-TRP-TAU 200 μM plus isoproterenol 1 μM, read-out: Percent lipolysis) amounted to 93%. Moreover, the solubility was 20 mM (≈ 12.9 mg/mL) in series [7] (dmf, organic solvent or mixture); 20 mM (≈ 12.9 mg/mL) in series [7] (dmso, organic solvent or mixture); no more than 2 mM in series [7] (water). For the same compound, the “Permeability into cell interiors” value in series [8] is “excellent”.
